ChEMBL document CHEMBL3817825, “Synthesis and biological evaluation of Schiff base-linked imidazolyl naphthalimides as novel potential anti-MRSA agents” (2016)
In brackets after ≈: the same amount, converted by molar mass.

Experiments:
[1] = test system: Escherichia coli; assay: Antibacterial activity against Escherichia coli JM109 after 24 hrs by two fold serial dilution method; type: functional; conditions: JM109, 24 h
[2] = test system: Staphylococcus aureus; assay: Antibacterial activity against Staphylococcus aureus ATCC25923 after 24 hrs by two fold serial dilution method; type: functional; conditions: ATCC25923, 24 h
[3] = test system: Micrococcus luteus; assay: Antibacterial activity against Micrococcus luteus ATCC4698 after 24 hrs by two fold serial dilution method; type: functional; conditions: ATCC4698, 24 h
[4] = test system: Staphylococcus aureus; assay: Antibacterial activity against methicillin-resistant Staphylococcus aureus N315 after 24 hrs by two fold serial dilution method; type: functional; conditions: N315, 24 h
[5] = test system: Escherichia coli; assay: Antibacterial activity against Escherichia coli DH52 after 24 hrs by two fold serial dilution method; type: functional; conditions: DH52, 24 h
[6] = test system: Aspergillus flavus; assay: Antifungal activity against Aspergillus flavus ATCC204304 after 24 hrs by two fold serial dilution method; type: functional; conditions: ATCC204304, 24 h
[7] = test system: Cyberlindnera jadinii; assay: Antifungal activity against Candida utilis ATCC9950 after 24 hrs by two fold serial dilution method; type: functional; conditions: Williopsis jadinii, ATCC9950, 24 h
[8] = test system: Bacillus; assay: Antibacterial activity against Bacillus proteus ATCC13315 after 24 hrs by two fold serial dilution method; type: functional; conditions: ATCC13315, 24 h
[9] = test system: Saccharomyces cerevisiae; assay: Antifungal activity against Beer yeast ATCC9763 after 24 hrs by two fold serial dilution method; type: functional; conditions: ATCC9763, 24 h
[10] = test system: Candida; assay: Antifungal activity against Candida mycoderma ATCC10231 after 24 hrs by two fold serial dilution method; type: functional; conditions: ATCC10231, 24 h
[11] = test system: Candida albicans; assay: Antifungal activity against Candida albicans ATCC76615 after 24 hrs by two fold serial dilution method; type: functional; conditions: ATCC76615, 24 h
[12] = test system: Bacillus subtilis; assay: Antibacterial activity against Bacillus subtilis ATCC6633 after 24 hrs by two fold serial dilution method; type: functional; conditions: ATCC6633, 24 h
[13] = test system: Shigella dysenteriae; assay: Antibacterial activity against Shigella dysenteriae after 24 hrs by two fold serial dilution method; type: functional
[14] = test system: Salmonella typhi; assay: Antibacterial activity against Bacillus typhi after 24 hrs by two fold serial dilution method; type: functional, Salmonella enterica subsp. enterica serovar Typhi; conditions: Salmonella enterica
[15] = test system: Pseudomonas aeruginosa; assay: Antibacterial activity against Pseudomonas aeruginosa ATCC27853 after 24 hrs by two fold serial dilution method; type: functional; conditions: ATCC27853, 24 h

SMILES | MIC [1] | MIC [2] | MIC [3] | MIC [4] | MIC [5] | MIC [6] | MIC [7] | MIC [8] | MIC [9] | MIC [10] | MIC [11] | MIC [12] | MIC [13] | MIC [14] | MIC [15]
CCCCCn1c(CCCC)nc(Cl)c1/C=N/N1C(=O)c2cccc3c(N4CCOCC4)ccc(c23)C1=O | 480 µM (≈ 257 µg/mL) | 240 µM (≈ 129 µg/mL) | 240 µM (≈ 129 µg/mL) | 480 µM (≈ 257 µg/mL) | 480 µM (≈ 257 µg/mL) | 480 µM (≈ 257 µg/mL) | 7 µM (≈ 3.75 µg/mL) | 480 µM (≈ 257 µg/mL) | 480 µM (≈ 257 µg/mL) | 480 µM (≈ 257 µg/mL) | 480 µM (≈ 257 µg/mL) | 240 µM (≈ 129 µg/mL) | 0.48 µM (≈ 0.257 µg/mL) | 0.24 µM (≈ 0.129 µg/mL) | 960 µM (≈ 515 µg/mL)
CCCCc1nc(Cl)c(/C=N/N2C(=O)c3cccc4c(N5CCOCC5)ccc(c34)C2=O)n1Cc1ccc(Cl)cc1 | 430 µM (≈ 254 µg/mL) | 870 µM (≈ 514 µg/mL) | 430 µM (≈ 254 µg/mL) | 430 µM (≈ 254 µg/mL) | 430 µM (≈ 254 µg/mL) | 870 µM (≈ 514 µg/mL) | 220 µM (≈ 130 µg/mL) | 430 µM (≈ 254 µg/mL) | 220 µM (≈ 130 µg/mL) | 430 µM (≈ 254 µg/mL) | 430 µM (≈ 254 µg/mL) | 430 µM (≈ 254 µg/mL) | 0.87 µM (≈ 0.514 µg/mL) | 0.43 µM (≈ 0.254 µg/mL) | 870 µM (≈ 514 µg/mL)
OC(Cn1cncn1)(Cn1cncn1)c1ccc(F)cc1F [FLUCONAZOLE] |  |  |  |  |  | 840 µM (≈ 257 µg/mL) | 30 µM (≈ 9.19 µg/mL) |  | 50 µM (≈ 15.3 µg/mL) | 10 µM (≈ 3.06 µg/mL) | 3 µM (≈ 0.919 µg/mL) |  |  |  | 
CCCCc1nc(Cl)c(/C=N/N2C(=O)c3cccc4c(Br)ccc(c34)C2=O)[nH]1 | 1110 µM (≈ 510 µg/mL) | 1110 µM (≈ 510 µg/mL) | 1110 µM (≈ 510 µg/mL) | 560 µM (≈ 257 µg/mL) | 1110 µM (≈ 510 µg/mL) | 1110 µM (≈ 510 µg/mL) | 1110 µM (≈ 510 µg/mL) | 1110 µM (≈ 510 µg/mL) | 140 µM (≈ 64.4 µg/mL) | 1110 µM (≈ 510 µg/mL) | 1110 µM (≈ 510 µg/mL) | 560 µM (≈ 257 µg/mL) | 0.56 µM (≈ 0.257 µg/mL) | 1.11 µM (≈ 0.51 µg/mL) | 560 µM (≈ 257 µg/mL)
CCCCc1nc(Cl)c(/C=N/N2C(=O)c3cccc4c(N5CCCCC5)ccc(c34)C2=O)[nH]1 | 560 µM (≈ 260 µg/mL) | 280 µM (≈ 130 µg/mL) | 280 µM (≈ 130 µg/mL) | 280 µM (≈ 130 µg/mL) | 560 µM (≈ 260 µg/mL) | 550 µM (≈ 255 µg/mL) | 280 µM (≈ 130 µg/mL) | 560 µM (≈ 260 µg/mL) | 550 µM (≈ 255 µg/mL) | 550 µM (≈ 255 µg/mL) | 140 µM (≈ 65 µg/mL) | 280 µM (≈ 130 µg/mL) | 0.28 µM (≈ 0.13 µg/mL) | 0.56 µM (≈ 0.26 µg/mL) | 560 µM (≈ 260 µg/mL)
CCCCc1nc(Cl)c(/C=N/N2C(=O)c3cccc4c(N5CCOCC5)ccc(c34)C2=O)n1Cc1ccc(OC)cc1 | 870 µM (≈ 510 µg/mL) | 440 µM (≈ 258 µg/mL) | 870 µM (≈ 510 µg/mL) | 440 µM (≈ 258 µg/mL) | 440 µM (≈ 258 µg/mL) | 430 µM (≈ 252 µg/mL) | 430 µM (≈ 252 µg/mL) | 220 µM (≈ 129 µg/mL) | 220 µM (≈ 129 µg/mL) | 870 µM (≈ 510 µg/mL) | 430 µM (≈ 252 µg/mL) | 440 µM (≈ 258 µg/mL) | 0.44 µM (≈ 0.258 µg/mL) | 0.44 µM (≈ 0.258 µg/mL) | 440 µM (≈ 258 µg/mL)
CCn1cc(C(=O)O)c(=O)c2cc(F)c(N3CCNCC3)cc21 [NORFLOXACIN] | 3 µM (≈ 0.958 µg/mL) | 6 µM (≈ 1.92 µg/mL) | 6 µM (≈ 1.92 µg/mL) | 20 µM (≈ 6.39 µg/mL) | 3 µM (≈ 0.958 µg/mL) |  |  | 20 µM (≈ 6.39 µg/mL) |  |  |  | 10 µM (≈ 3.19 µg/mL) | 0.05 µM (≈ 0.016 µg/mL) |  | 50 µM (≈ 16 µg/mL)
CCCCc1nc(Cl)c(/C=N/N2C(=O)c3cccc4c(N5CCOCC5)ccc(c34)C2=O)n1Cc1cccc(F)c1 | 440 µM (≈ 253 µg/mL) | 220 µM (≈ 126 µg/mL) | 440 µM (≈ 253 µg/mL) | 440 µM (≈ 253 µg/mL) | 440 µM (≈ 253 µg/mL) | 440 µM (≈ 253 µg/mL) | 440 µM (≈ 253 µg/mL) | 220 µM (≈ 126 µg/mL) | 440 µM (≈ 253 µg/mL) | 440 µM (≈ 253 µg/mL) | 440 µM (≈ 253 µg/mL) | 440 µM (≈ 253 µg/mL) | 0.89 µM (≈ 0.511 µg/mL) | 0.89 µM (≈ 0.511 µg/mL) | 440 µM (≈ 253 µg/mL)
CCCCc1nc(Cl)c(/C=N/N2C(=O)c3cccc4c(N5CCOCC5)ccc(c34)C2=O)n1Cc1ccc(Cl)c(Cl)c1 | 370 µM (≈ 231 µg/mL) | 740 µM (≈ 462 µg/mL) | 370 µM (≈ 231 µg/mL) | 370 µM (≈ 231 µg/mL) | 180 µM (≈ 112 µg/mL) | 740 µM (≈ 462 µg/mL) | 370 µM (≈ 231 µg/mL) | 180 µM (≈ 112 µg/mL) | 180 µM (≈ 112 µg/mL) | 370 µM (≈ 231 µg/mL) | 370 µM (≈ 231 µg/mL) | 370 µM (≈ 231 µg/mL) | 0.74 µM (≈ 0.462 µg/mL) | 0.74 µM (≈ 0.462 µg/mL) | 740 µM (≈ 462 µg/mL)
CCCCCCCCn1c(CCCC)nc(Cl)c1/C=N/N1C(=O)c2cccc3c(N4CCOCC4)ccc(c23)C1=O | 220 µM (≈ 127 µg/mL) | 220 µM (≈ 127 µg/mL) | 880 µM (≈ 509 µg/mL) | 440 µM (≈ 254 µg/mL) | 440 µM (≈ 254 µg/mL) | 880 µM (≈ 509 µg/mL) | 880 µM (≈ 509 µg/mL) | 440 µM (≈ 254 µg/mL) | 880 µM (≈ 509 µg/mL) | 440 µM (≈ 254 µg/mL) | 440 µM (≈ 254 µg/mL) | 440 µM (≈ 254 µg/mL) | 0.88 µM (≈ 0.509 µg/mL) | 0.44 µM (≈ 0.254 µg/mL) | 880 µM (≈ 509 µg/mL)
CCCCc1nc(Cl)c(/C=N/N2C(=O)c3cccc4c(N5CCOCC5)ccc(c34)C2=O)n1Cc1ccc(F)cc1 | 440 µM (≈ 253 µg/mL) | 890 µM (≈ 511 µg/mL) | 440 µM (≈ 253 µg/mL) | 440 µM (≈ 253 µg/mL) | 890 µM (≈ 511 µg/mL) | 890 µM (≈ 511 µg/mL) | 440 µM (≈ 253 µg/mL) | 440 µM (≈ 253 µg/mL) | 890 µM (≈ 511 µg/mL) | 440 µM (≈ 253 µg/mL) | 440 µM (≈ 253 µg/mL) | 440 µM (≈ 253 µg/mL) | 0.89 µM (≈ 0.511 µg/mL) | 0.44 µM (≈ 0.253 µg/mL) | 890 µM (≈ 511 µg/mL)
CCCCc1nc(Cl)c(/C=N/N2C(=O)c3cccc4c(N5CCOCC5)ccc(c34)C2=O)[nH]1 | 270 µM (≈ 126 µg/mL) | 270 µM (≈ 126 µg/mL) | 270 µM (≈ 126 µg/mL) | 70 µM (≈ 32.6 µg/mL) | 270 µM (≈ 126 µg/mL) | 550 µM (≈ 256 µg/mL) | 550 µM (≈ 256 µg/mL) | 270 µM (≈ 126 µg/mL) | 270 µM (≈ 126 µg/mL) | 140 µM (≈ 65.2 µg/mL) | 270 µM (≈ 126 µg/mL) | 550 µM (≈ 256 µg/mL) | 0.07 µM (≈ 0.0326 µg/mL) | 0.27 µM (≈ 0.126 µg/mL) | 70 µM (≈ 32.6 µg/mL)
